Counter-ions that a name gives are not always drawn. Like-named read-outs stand apart in the source and are kept apart here.
What was measured:
[1] = molecular target: cIAP1-BIR3 (Homo sapiens, UniProt Q13490); test: Biacore SPR solution competition binding assay vs smac7mer peptide, cIAP1-BIR3; conditions: 6 nM cIAP1-BIR3, read-out: CIAP-BIR3 Binding Biacore (Competitive) EC50
Text: (§1) The compounds described herein above were profiled using a cellular assay (using Panc3.27 tumor cells) and a binding assay to determine the competition between the compounds of the present invention and smac7mer peptide for XIAP-BIR3 and cIAP1-BIR3 binding groove occupancy.
(§2) The present method includes utility of a Surface plasmon resonance (SPR)-based biosensor (Biacore™, GE Healthcare, Uppsala, Sweden) to examine competition between the compounds of the present invention and smac7mer peptide for XIAP-BIR3 and cIAP1-BIR3 binding groove occupancy.
(§3) Biacore™ utilizes the phenomenon of surface plasmon resonance (SPR) to detect and measure binding interactions. In a typical Biacore experiment, one of the interacting molecules is immobilized on a flexible dextran matrix while the interacting partner is flowed over the derivatized surface. A binding interaction results in an increase in mass on the sensor surface and a corresponding direct change in the refractive index of the medium in the vicinity of the sensor surface. Changes in refractive index or signal are recorded in resonance units (R.U.) Signal changes due to association and dissociation of complexes are monitored in a non-invasive manner, continuously and in real-time, the results of which are reported in the form of a sensorgram.
(§4) Biacore™ T100 (GE Healthcare, Uppsala, Sweden) was used to conduct all experiments reported herein. Sensor surface preparation and interaction analyses were performed at 25° C. Buffer and Biacore reagents were purchased from GE Healthcare. Running buffer containing 10 mM Hepes, pH7.4, 150 mM sodium chloride, 1.25 mM Dithiothreitol, 2% Dimethyl sulfoxide and 0.05% polysorbate 20 was utilized throughout all experiments.
(§5) Biotinylated smac7mer peptide was diluted to 10 nM in running buffer and captured onto a sensor surface pre-derivatized with streptavidin (sensor chip SA) towards peptide surface densities in the range 40-100 R.U. Peptide captured surfaces were blocked with 500 μM PEO2-Biotin (Thermo Scientific).
(§6) Interaction analyses were performed by first equilibrating each compound within a six point seven fold compound dilution series in the range 1 μM to 0.06 nM with either 100 nM XIAP-BIR3 or 6 nM cIAP1-BIR3 for at least one hour during instrument start-up procedures. Protein compound mixtures were then injected over reference and smac7mer peptide surfaces in series for 60 seconds at a flow-rate of 60 μL/min. Surface regeneration was performed at the end of each analysis cycle by a 30 second injection of 10 mM Glycine, pH 2.5, 1M Sodium Chloride, 0.05% polysorbate 20. Additionally, control compound samples and control XIAP-BIR3 or cIAP1-BIR3 samples were prepared and run at regular intervals to monitor surface and assay performance.
(§7) Data analyses were carried out using Biacore™ T100 evaluation software v2.0 to validate assay quality. Binding level report points were plotted versus logarithmic compound concentration values and analyzed in Graphpad prism 5 via non-linear regression using a one-site competition model. EC50 values were generated and used as a measure of inhibitor potency.

[2] = tested on: Panc3.27 tumor cells; test: Cellular assay: Panc3.27 tumor cell proliferation (Cell Titer Glo); assay type: cell-based; conditions: Panc3.27 cells, 4000 cells per well, 72 hour growth, CTG readout, percent control growth; read-out: PANC proliferation IC50
Protocol: as §1
Cellular Assay—Treatment of Panc3.27 Tumor Cells with Dimeric IAP Antagonists
On day one adherent Panc3.27 cells are plated into two 96-well, clear, flat bottom plates. All wells in row A contain 90 uL of media. All wells in rows B-G contain a total volume of 90 uL per well and 4000 cells per well for Panc3.27 cell lines. Plates are then incubated overnight for 18 hours at 37° C., 5% CO2.
On day two cells are treated with the compounds of formula M-L-M′. Treatments are done in triplicate. The compounds are first serially diluted in DMSO and then added to media giving a final concentration of 0.2% DMSO when added to cells. Cells are treated with 10 uL of serially diluted compounds of formula M-L-M′ at a final concentration of 1000 nM, 200 nM, 40 nM, 8 nM, 1.6 nM, 0.32 nM, 0.06 nM, 0.013 nM, 0.0026 nM, and one untreated well. Plate two is used as a time zero plate.
To measure cell viability 50 uL of Cell Titer Glo (CTG) solution is added to row A, media only and B, cells and media. CTG is purchased from Promega Corporation catalog number G7573. The solution is prepared according to manufacturer's instructions. CTG measures the amount of ATP released from viable cells that is proportional to the number of cells in each well. After incubating for ten minutes with CTG plates are measured on a luminescent reader at 700 nm wavelength. Read time is approximately one second per well for a 96-well plate.
On day five 50 uL of CTG is added to plate one, rows A-G, incubated for 10 minutes at room temperature and read on a luminescent reader. Raw data is adjusted to account for the time zero plate as well as background noise. Triplicate values are averaged and percent control growth is calculated. Percent control growth is calculated using the following logical test: If well read data point (a) is greater than time zero data point (t=0), then 100*[(a)−(t=0)]/[(72 hour total growth)−(t=0)], OR 100*[(a)−(t=0)]/[(t=0)]. Data is represented by line graph with the concentration of compound on the x axis and percent control growth on the y axis.

[3] = molecular target: XIAP-BIR3 (Homo sapiens, UniProt P98170); test: Biacore SPR solution competition binding assay vs smac7mer peptide, XIAP-BIR3; conditions: 100 nM XIAP-BIR3, read-out: XIAP-BIR3 Binding Biacore (Competitive) EC50
XIAP-BIR3, sequence (P98170 241-356 limits assumed): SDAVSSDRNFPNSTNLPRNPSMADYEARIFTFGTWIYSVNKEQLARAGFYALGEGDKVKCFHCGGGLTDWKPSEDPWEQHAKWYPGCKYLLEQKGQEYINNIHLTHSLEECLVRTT
Text: as §1, §2, §3, §4, §5, §6, §7

[4] = SPR competition with captured smac7mer peptide, 25° C.

cIAP1-BIR3, sequence (Q13490 253-363 limits assumed): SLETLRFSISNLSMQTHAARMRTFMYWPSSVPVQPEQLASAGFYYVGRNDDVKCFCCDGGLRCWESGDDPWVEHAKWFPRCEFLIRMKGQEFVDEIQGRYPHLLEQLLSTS

| SMILES | EC50 [1, 4] [nM] | IC50 [2] [nM] | EC50 [3, 4] [nM] | EC50 ([3]; Tested as the trifluoroacetate salt (footnote 2), SPR competition with smac7mer peptide) [nM] | EC50 ([1]; Tested as the citrate salt (footnote 1), SPR competition with smac7mer peptide) [nM] |
| --- | --- | --- | --- | --- | --- |
| CN[C@@H](C)C(=O)N[C@H](C(=O)N1CCC[C@H]1c1cncc(-c2ccc(F)c(C(=O)NCc3ccc(CNC(=O)c4cc(-c5cncc([C@@H]6CCCN6C(=O)[C@@H](NC(=O)[C@H](C)NC)C6CCCCC6)c5)ccc4F)cc3)c2)c1)C1CCCCC1 [Example 2B-1, (S,S,S)—N,N′-(1,4-phenylenebis(methylene))bis(5-(5-((S)-1-((S)-2-cyclohexyl-2-((S)-2-(methylamino)propanamido)acetyl)pyrrolidin-2-yl)pyridin-3-yl)-2-fluorobenzamide)] | 0.77 to 0.79 | < 0.0026 | 347 to 353 |  |  |
| CN[C@@H](C)C(=O)N[C@H](C(=O)N1CCC[C@H]1c1cncc(-c2ccc(F)c(C(=O)NCCCCNC(=O)c3cc(-c4cncc([C@@H]5CCCN5C(=O)[C@@H](NC(=O)[C@H](C)NC)C5CCCCC5)c4)ccc3F)c2)c1)C1CCCCC1 [Example 2I-1] | 2.79 to 2.8 | 0.0026 to 0.4 | 318 to 326 |  |  |
| CN[C@@H](C)C(=O)N[C@H](C(=O)N1CCC[C@H]1c1cncc(-c2ccc(F)c(C(=O)NCCNC(=O)c3cc(-c4cncc([C@@H]5CCCN5C(=O)[C@@H](NC(=O)[C@H](C)NC)C5CCCCC5)c4)ccc3F)c2)c1)C1CCCCC1 [Example 2A-1] | 1.1 to 1.11 | 2.11 to 7.69 | 135 to 136 |  |  |
| CN[C@@H](C)C(=O)N[C@H](C(=O)N1CCC[C@H]1c1cncc(-c2ccc(F)c(C(=O)NCCCOCCOCCCNC(=O)c3cc(-c4cncc([C@@H]5CCCN5C(=O)[C@@H](NC(=O)[C@H](C)NC)C5CCCCC5)c4)ccc3F)c2)c1)C1CCCCC1 [Example 2L-2] | 3.35 to 3.38 | 0.01 to 0.56 | 480 to 488 |  |  |
| CN[C@@H](C)C(=O)N[C@H](C(=O)N1CCC[C@H]1c1cncc(-c2ccc(F)c(C(=O)NCc3ccc(-c4ccc(CNC(=O)c5cc(-c6cncc([C@@H]7CCCN7C(=O)[C@@H](NC(=O)[C@H](C)NC)C7CCCCC7)c6)ccc5F)cc4)cc3)c2)c1)C1CCCCC1 [Example 2C-2, (S,S,S)—N,N′-(biphenyl-4,4′-diylbis(methylene))bis(5-(5-((S)-1-((S)-2-cyclohexyl-2-((S)-2-(methylamino)propanamido)acetyl)pyrrolidin-2-yl)pyridin-3-yl)-2-fluorobenzamide)] | 0.98 to 0.99 | < 0.0026 |  | 2330 to 2390 |  |
| CN[C@@H](C)C(=O)N[C@H](C(=O)N1CCC[C@H]1c1cncc(-c2ccc(F)c(C(=O)NCCCCCCNC(=O)c3cc(-c4cncc([C@@H]5CCCN5C(=O)[C@@H](NC(=O)[C@H](C)NC)C5CCCCC5)c4)ccc3F)c2)c1)C1CCCCC1 [Example 2F-1] | 1.34 to 1.36 | 0.0026 to 0.01 | 305 to 306 |  |  |
| CN[C@@H](C)C(=O)N[C@H](C(=O)N1CCC[C@H]1c1cncc(-c2ccc(F)c(C(=O)N[C@H]3CC[C@H](NC(=O)c4cc(-c5cncc([C@@H]6CCCN6C(=O)[C@@H](NC(=O)[C@H](C)NC)C6CCCCC6)c5)ccc4F)CC3)c2)c1)C1CCCCC1 [Example 2K-1] | 1.65 to 1.66 | < 0.0026 | 321 to 322 |  |  |
| CN[C@@H](C)C(=O)N[C@H](C(=O)N1CCC[C@H]1c1cncc(-c2ccc(F)c(C(=O)N3CC4(C3)CN(C(=O)c3cc(-c5cncc([C@@H]6CCCN6C(=O)[C@@H](NC(=O)[C@H](C)NC)C6CCCCC6)c5)ccc3F)C4)c2)c1)C1CCCCC1 [Example 2M-2] | 3.74 to 3.75 | 9.02 to 40.8 | 176 to 177 |  |  |
| CN[C@@H](C)C(=O)N[C@H](C(=O)N1CCC[C@H]1c1cncc(-c2ccc(F)c(C(=O)NNC(=O)c3cc(-c4cncc([C@@H]5CCCN5C(=O)[C@@H](NC(=O)[C@H](C)NC)C5CCCCC5)c4)ccc3F)c2)c1)C1CCCCC1 [Example 2N-2] | 1.27 to 1.36 | 0.0026 to 0.02 | 75.2 to 75.5 |  |  |
| CN[C@@H](C)C(=O)N[C@H](C(=O)N1CCC[C@H]1c1cncc(-c2ccc(F)c(C(=O)NCCCCCCCCCCNC(=O)c3cc(-c4cncc([C@@H]5CCCN5C(=O)[C@@H](NC(=O)[C@H](C)NC)C5CCCCC5)c4)ccc3F)c2)c1)C1CCCCC1 [Example 2D-1] | 1.35 to 2.17 | 0.0026 to 0.15 | 1520 to 1920 |  |  |
| CN[C@@H](C)C(=O)N[C@H](C(=O)N1CCC[C@H]1c1cncc(-c2ccc(F)c(C(=O)NCCCCCCCCNC(=O)c3cc(-c4cncc([C@@H]5CCCN5C(=O)[C@@H](NC(=O)[C@H](C)NC)C5CCCCC5)c4)ccc3F)c2)c1)C1CCCCC1 [Example 2G-1, (S,S,S)—N,N′-(octane-1,8-diyl)bis(5-(5-((S)-1-((S)-2-cyclohexyl-2-((S)-2-(methylamino)propanamido)acetyl)pyrrolidin-2-yl)pyridin-3-yl)-2-fluorobenzamide)] | 1.26 to 1.31 | 0.0026 to 0.03 | 426 to 495 |  |  |
| CN[C@@H](C)C(=O)N[C@H](C(=O)N1CCC[C@H]1c1cncc(-c2ccc(F)c(C(=O)NCCCOCCOCCOCCCNC(=O)c3cc(-c4cncc([C@@H]5CCCN5C(=O)[C@@H](NC(=O)[C@H](C)NC)C5CCCCC5)c4)ccc3F)c2)c1)C1CCCCC1 [Example 2J-2] | 1.39 to 1.4 | 0.03 to 0.59 | 156 |  |  |
| CN[C@@H](C)C(=O)N[C@H](C(=O)N1CCC[C@H]1c1cncc(-c2ccc(F)cc2CNC(=O)c2ccc(-c3ccc(C(=O)NCc4cc(F)ccc4-c4cncc([C@@H]5CCCN5C(=O)[C@@H](NC(=O)[C@H](C)NC)C5CCCCC5)c4)cc3)cc2)c1)C1CCCCC1 [Example 3A, N4,N4′-bis(2-(5-((S)-1-(S)-2-cyclohexyl-2-((S)-2-(methylamino)-propanamido)acetyl)pyrrolidin-2-yl)pyridin-3-yl)-5-fluorobenzyl)biphenyl-4,4′-dicarboxamide, trifluoroacetate] | 0.86 to 0.88 | 0.0026 to 0.0084 | 126 to 127 |  |  |
| CN[C@@H](C)C(=O)N[C@H](C(=O)N1CCC[C@H]1c1cncc(-c2ccc(F)c(C(=O)NCCCOCCOCCOCCOCCOCCCNC(=O)c3cc(-c4cncc([C@@H]5CCCN5C(=O)[C@@H](NC(=O)[C@H](C)NC)C5CCCCC5)c4)ccc3F)c2)c1)C1CCCCC1 [Example 1A-1] |  | 0.15 to 2.87 | 353 to 359 |  | 1.55 to 1.6 |
| CN[C@@H](C)C(=O)N[C@H](C(=O)N1CCC[C@H]1c1cncc(-c2ccc(F)c(C(=O)NCCCCCCCCCCCCNC(=O)c3cc(-c4cncc([C@@H]5CCCN5C(=O)[C@@H](NC(=O)[C@H](C)NC)C5CCCCC5)c4)ccc3F)c2)c1)C1CCCCC1 [Example 2E-1] | 5.65 to 6.37 | 0.07 to 4.93 | > 1000 |  |  |

From patent publication US20130266590A1, “DIMERIC IAP INHIBITORS” (NOVARTIS AG, priority 2010, published 2013)
